In patent US20260083865A1, “PROSTATE SPECIFIC MEMBRANE ANTIGEN (PSMA) LIGANDS AND USE THEREOF” (priority 2022, published 2026):
Numbered stars: 1 amine (or outer) side, 2 acyl side, 3 side chain; on linkers, the order of the positions; unused ones are H or OH. Bridge positions count the residues as written; N and C are the ends. Square brackets hold non-standard residues; d marks the D form. Peptide text beside a SMILES is read from it. * marks the point of attachment. TtdsdLys(DOTA)NH2 = NC(=O)[C@@H](CCCCNC(=O)CN1CCN(CC(=O)O)CCN(CC(=O)O)CCN(CC(=O)O)CC1)NC(=O)CCC(=O)NCCCOCCOCCOCCCN*; X3 = O=C(O)CN1CCN(CC(=O)O)CCN(CC(=O)NCCCOCCOCCOCCCN*)CCN(CC(=O)O)CC1; DOTA = O=C(O)CN1CCN(CC(=O)O)CCN(CC(=O)*)CCN(CC(=O)O)CC1; Phe(4-Cl) = N[C@@H](Cc1ccc(Cl)cc1)C(=O)O; 2Nal = N[C@@H](Cc1ccc2ccccc2c1)C(=O)O; Thz(5,5-Me2) = CC1(C)SCN[C@@H]1C(=O)O; 2Pal = N[C@@H](Cc1ccccn1)C(=O)O; X1 = O=C(CC1CCN([*:1])CC1)[*:2]; Cit = NC(=O)NCCC[C@H](N)C(=O)O; Suc = O=C(CCC(=O)[*:2])[*:1]; Tle = CC(C)(C)[C@H](N)C(=O)O; X15 = O=C1NC(=O)C(CC(=O)*)N1; Propanoyl(3-OH) = O=C(CCO)*; 4Amb = NCc1ccc(C(=O)O)cc1; Nle = CCCC[C@H](N)C(=O)O; Orn = NCCC[C@H](N)C(=O)O; Aib = CC(C)(N)C(=O)O; Ahx = NCCCCCC(=O)O; βAla = NCCC(=O)O

Experiments:
[1] = molecular target: T1, Fc-fusion protein of human PSMA (hPSMA-Fc) (Homo sapiens, UniProt Q04609); experiment: Surface plasmon resonance assay (Biacore T200, single cycle kinetic); format: binding; conditions: pKD category for PSMA SPR activity assay, hPSMA-Fc, 25° C.; read-out: pKD CAT (converted)
T1 construct: purchased Acro Biosystems PSA-H5264
In short: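 hPSMA-Fc was captured (~1000 RU) on an Fc-binding-peptide CM5 chip, and compounds were run in single cycle kinetic mode at 25° C in HBST with 0.1% DMSO. Double-blank-corrected sensorgrams were fitted to a 1:1 Langmuir model to give KD, reported as pKD.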

[2] = molecular target: T2, PSMA-expressing C4-2 cells (Homo sapiens, UniProt Q04609); experiment: FACS binding assay (competition with 50 nM PSM-0183); conditions: pIC50 category of FACS binding, C4-2 cells; read-out: pIC50 [C4-2] CAT (converted)
T2 construct: PSMA-expressing C4-2 cells (ATCC, Cat. No. CRL-3314) were cultured in RPMI-1640; host or cells: C4-2 cells
In short: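 C4-2 cells were incubated 1 h at 4 °C with 50 nM AF488-labelled peptide PSM-0183 plus increasing test compound concentrations, then washed twice in ice-cold buffer. Median fluorescence in the AF488 channel was read by flow cytometry. IC50/pIC50 was derived by 4PL fitting of MFI versus concentration.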

T1 sequence (Q04609 44-750 limits assumed): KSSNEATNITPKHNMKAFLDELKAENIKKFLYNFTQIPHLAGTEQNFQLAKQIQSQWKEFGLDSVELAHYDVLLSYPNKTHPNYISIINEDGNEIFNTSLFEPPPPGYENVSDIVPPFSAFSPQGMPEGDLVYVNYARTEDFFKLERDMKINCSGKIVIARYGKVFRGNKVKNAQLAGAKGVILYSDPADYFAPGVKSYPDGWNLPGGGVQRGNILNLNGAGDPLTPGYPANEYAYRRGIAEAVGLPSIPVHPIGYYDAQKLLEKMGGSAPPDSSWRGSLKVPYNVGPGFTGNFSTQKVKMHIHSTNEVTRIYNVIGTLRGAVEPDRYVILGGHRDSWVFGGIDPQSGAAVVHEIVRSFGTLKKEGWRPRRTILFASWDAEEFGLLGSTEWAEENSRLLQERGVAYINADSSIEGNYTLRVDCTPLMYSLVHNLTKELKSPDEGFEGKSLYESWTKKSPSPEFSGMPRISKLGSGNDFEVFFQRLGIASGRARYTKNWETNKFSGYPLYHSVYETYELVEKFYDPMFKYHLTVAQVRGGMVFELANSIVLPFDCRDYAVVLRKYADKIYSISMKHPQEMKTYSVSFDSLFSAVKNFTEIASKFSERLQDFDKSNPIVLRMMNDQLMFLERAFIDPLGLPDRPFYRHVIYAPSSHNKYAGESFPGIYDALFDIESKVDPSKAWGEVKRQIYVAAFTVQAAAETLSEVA
T2 sequence (Q04609 whole entry): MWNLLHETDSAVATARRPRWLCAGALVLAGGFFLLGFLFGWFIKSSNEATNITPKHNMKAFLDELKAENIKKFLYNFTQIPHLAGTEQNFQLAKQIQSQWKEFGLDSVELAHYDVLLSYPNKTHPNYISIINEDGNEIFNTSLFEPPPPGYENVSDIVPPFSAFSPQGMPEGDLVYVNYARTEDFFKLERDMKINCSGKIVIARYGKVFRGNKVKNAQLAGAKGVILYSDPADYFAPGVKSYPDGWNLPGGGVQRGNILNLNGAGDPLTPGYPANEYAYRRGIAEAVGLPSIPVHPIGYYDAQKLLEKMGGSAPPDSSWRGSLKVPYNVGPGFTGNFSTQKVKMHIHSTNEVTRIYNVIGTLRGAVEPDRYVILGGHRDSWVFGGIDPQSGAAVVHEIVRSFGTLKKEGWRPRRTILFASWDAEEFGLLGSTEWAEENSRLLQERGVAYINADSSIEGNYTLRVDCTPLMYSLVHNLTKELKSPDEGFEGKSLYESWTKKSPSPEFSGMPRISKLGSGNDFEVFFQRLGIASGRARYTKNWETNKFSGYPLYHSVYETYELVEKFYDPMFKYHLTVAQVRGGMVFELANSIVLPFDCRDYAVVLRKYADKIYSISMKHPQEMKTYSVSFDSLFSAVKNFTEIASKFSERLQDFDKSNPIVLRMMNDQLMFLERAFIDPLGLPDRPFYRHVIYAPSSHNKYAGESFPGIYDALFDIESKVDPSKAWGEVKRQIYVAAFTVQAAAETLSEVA

| Structure (SMILES) | Kd [1] [nM] | IC50 [2] [nM] |
| --- | --- | --- |
| CC(=O)N[C@H](C(=O)NC(C)(C)C(=O)N[C@@H](Cc1ccc(Cl)cc1)C(=O)N[C@H]1CSSC[C@@H](C(=O)N[C@H](C(=O)NCCC(N)=O)C(C)(C)C)NC(=O)[C@H](CC(N)=O)NC(=O)C(C)(C)NC(=O)[C@H](CCCNC(=N)N)NC(=O)[C@H](CCCCN)NC1=O)[C@@H](C)O [PSM-0514, Ac-Thr-Aib-Pcf-[Cys-Lys-Arg-Aib-Asn-Cys]-Tle-Bal-NH2] (Ac-T[Aib][Phe(4-Cl)]CKR[Aib]NC[Tle][βAla]-NH2; disulfide 4-9) | < 12.6 | < 200 |
| CC(=O)N[C@H](C(=O)NC(C)(C)C(=O)N[C@@H](Cc1ccc2ccccc2c1)C(=O)N[C@H]1CSSC[C@@H](C(=O)N[C@H](C(=O)N[C@H](C(=O)N[C@@H](CC(=O)O)C(N)=O)[C@@H](C)O)C(C)(C)C)NC(=O)[C@H](CC(N)=O)NC(=O)C(C)(C)NC(=O)[C@H](CCCNC(=N)N)NC(=O)[C@H](CCCCN)NC1=O)[C@@H](C)O [PSM-0517, Ac-Thr-Aib-2Ni-[Cys-Lys-Arg-Aib-Asn-Cys]-Tle-Thr-Asp-NH2] (Ac-T[Aib][2Nal]CKR[Aib]NC[Tle]TD-NH2; disulfide 4-9) | < 12.6 | < 200 |
| CC(=O)N[C@@H](Cc1ccc(Cl)cc1)C(=O)N[C@H]1CSSC[C@@H](C(N)=O)NC(=O)[C@H](CC(N)=O)NC(=O)C(C)(C)NC(=O)[C@H](CCCNC(=N)N)NC(=O)[C@H](CCCCN)NC1=O [PSM-0524, Ac-Pcf-[Cys-Lys-Arg-Aib-Asn-Cys]-NH2] (Ac-[Phe(4-Cl)]CKR[Aib]NC-NH2; disulfide 2-7) | > 501 | > 3160 |
| CCCC[C@H](NC(=O)[C@@H]1CSSC[C@H](NC(=O)[C@H](Cc2ccccc2)NC(=O)[C@H](C)NC(=O)[C@H](NC(C)=O)[C@H](C)O)C(=O)N[C@@H](CCCCN)C(=O)N[C@@H](CCCNC(=N)N)C(=O)N[C@@H](C)C(=O)N[C@@H](CC(N)=O)C(=O)N1)C(=O)N[C@H](C(=O)N[C@@H](CC(=O)O)C(N)=O)[C@@H](C)O [PSM-0525, Ac-thr-Als-Phe-[Cys-Lys-Arg-Als-Asn-Cys]-Nle-Thr-Asp-NH2] | > 501 | > 3160 |
| CC(=O)N[C@H](C(=O)NC(C)(C)C(=O)N[C@@H](Cc1ccccc1)C(=O)N[C@H]1CSSC[C@@H](C(=O)N[C@H](C(=O)N[C@H](C(=O)N[C@@H](CC(=O)O)C(N)=O)[C@@H](C)O)C(C)(C)C)NC(=O)[C@H](CC(N)=O)NC(=O)[C@H]2N(CSC2(C)C)C(=O)[C@H](CCCNC(=N)N)NC(=O)[C@H](CCCCN)NC1=O)[C@@H](C)O [PSM-0532, Ac-Thr-Aib-Phe-[Cys-Lys-Arg-Dtc-Asn-Cys]-Tle-Thr-Asp-NH2] (Ac-T[Aib]FCKR[Thz(5,5-Me2)]NC[Tle]TD-NH2; disulfide 4-9) | < 12.6 | < 200 |
| CCCC[C@H](NC(=O)[C@@H]1CSSC[C@H](NC(=O)[C@H](Cc2ccccc2)NC(=O)[C@H](C)NC(=O)[C@@H](NC(C)=O)[C@@H](C)O)C(=O)N[C@@H](CCCCN)C(=O)N[C@@H](CCCNC(=N)N)C(=O)N[C@@H](C)C(=O)N[C@@H](CC(N)=O)C(=O)N1)C(=O)N[C@H](C(=O)N[C@@H](CC(=O)O)C(=O)NCCCOCCOCCOCCCNC(=O)CCC(=O)N[C@H](CCCCNC(=O)CN1CCN(CC(=O)O)CCN(CC(=O)O)CCN(CC(=O)O)CC1)C(N)=O)[C@@H](C)O [PSM-0533, Ac-Thr-Ala-Phe-[Cys-Lys-Arg-Ala-Asn-Cys]-Nle-Thr-Asp-Ttds-lys(DOTA)-NH2] (Ac-TAFCKRANC[Nle]TD-{TtdsdLys(DOTA)NH2}; disulfide 4-9) | 12.6 to 126 | 200 to 1260 |
| CC(=O)N[C@H](C(=O)NC(C)(C)C(=O)N[C@@H](Cc1ccccc1)C(=O)N[C@H]1CSSC[C@@H](C(=O)N[C@H](C(=O)N[C@H](C(=O)N[C@@H](CC(=O)O)C(N)=O)[C@@H](C)O)C(C)(C)C)NC(=O)[C@H](CC(N)=O)NC(=O)[C@H](C)NC(=O)[C@H](CCCNC(=N)N)NC(=O)[C@@H](CCCCN)NC1=O)[C@@H](C)O [PSM-0535, Ac-Thr-Aib-Phe-[Cys-lys-Arg-Ala-Asn-Cys]-Tle-Thr-Asp-NH2] (Ac-T[Aib]FC[dK]RANC[Tle]TD-NH2; disulfide 4-9) | < 12.6 | 200 to 1260 |

Results, then the compound that gave them:

| Kd [1] [nM] | IC50 [2] [nM] | Structure (SMILES) |
| --- | --- | --- |
| < 12.6 | < 200 | C[C@@H](O)[C@H](NC(=O)[C@@H](NC(=O)[C@@H]1CSSC[C@H](NC(=O)[C@H](Cc2ccc(Cl)cc2)NC(=O)C(C)(C)NC(=O)[C@@H](NC(=O)CC2CCN(C(=O)CN3CCN(CC(=O)O)CCN(CC(=O)O)CCN(CC(=O)O)CC3)CC2)[C@@H](C)O)C(=O)N[C@@H](CCCN)C(=O)N[C@@H](CCCNC(=N)N)C(=O)NC(C)(C)C(=O)N[C@@H](CC(N)=O)C(=O)N1)C(C)(C)C)C(N)=O [PSM-0511, DOTA-Cmp-Thr-Aib-Pcf-[Cys-Om-Arg-Aib-Asn-Cys]-Tle-Thr-NH2] ({DOTA}-[X1]T[Aib][Phe(4-Cl)]C[Orn]R[Aib]NC[Tle]T-NH2; disulfide 5-10) |
| 12.6 to 126 | 200 to 1260 | C[C@@H](O)[C@H](NC(=O)[C@@H](NC(=O)[C@@H]1CSSC[C@H](NC(=O)[C@H](Cc2ccccn2)NC(=O)C(C)(C)NC(=O)[C@@H](NC(=O)CC2CCN(C(=O)CN3CCN(CC(=O)O)CCN(CC(=O)O)CCN(CC(=O)O)CC3)CC2)[C@@H](C)O)C(=O)N[C@@H](CCCCN)C(=O)N[C@@H](CCCNC(N)=O)C(=O)NC(C)(C)C(=O)N[C@@H](CC(N)=O)C(=O)N1)C(C)(C)C)C(N)=O [PSM-0512, DOTA-Cmp-Thr-Aib-Opa-[Cys-Lys-Cit-Aib-Asn-Cys]-Tle-Thr-NH2] ({DOTA}-[X1]T[Aib][2Pal]CK[Cit][Aib]NC[Tle]T-NH2; disulfide 5-10) |
| < 12.6 | < 200 | C[C@@H](O)[C@H](NC(=O)[C@@H](NC(=O)[C@@H]1CSSC[C@H](NC(=O)[C@H](Cc2ccccc2)NC(=O)C(C)(C)NC(=O)CCCCCNC(=O)CN2CCN(CC(=O)O)CCN(CC(=O)O)CCN(CC(=O)O)CC2)C(=O)N[C@@H](CCCCN)C(=O)N[C@@H](CCCNC(=N)N)C(=O)NC(C)(C)C(=O)N[C@@H](CC(N)=O)C(=O)N1)C(C)(C)C)C(N)=O [PSM-0513, DOTA-Ahx-Aib-Phe-[Cys-Lys-Arg-Aib-Asn-Cys]-Tle-Thr-NH2] ({DOTA-Ahx}-[Aib]FCKR[Aib]NC[Tle]T-NH2; disulfide 3-8) |
| < 12.6 | < 200 | C[C@@H](O)[C@H](NC(=O)[C@@H](NC(=O)[C@@H]1CSSC[C@H](NC(=O)[C@H](Cc2ccccc2)NC(=O)C(C)(C)NC(=O)CC2NC(=O)NC2=O)C(=O)N[C@@H](CCCCN)C(=O)N[C@@H](CCCNC(=N)N)C(=O)NC(C)(C)C(=O)N[C@@H](CC(N)=O)C(=O)N1)C(C)(C)C)C(N)=O (stereo partly drawn) [PSM-0518, HYDAc-Aib-Phe-[Cys-Lys-Arg-Aib-Asn-Cys]-Tle-Thr-NH2] (X15-[Aib]FCKR[Aib]NC[Tle]T-NH2; disulfide 3-8) |
| 12.6 to 126 | 200 to 1260 | C[C@@H](O)[C@H](NC(=O)[C@@H](NC(=O)[C@@H]1CSSC[C@H](NC(=O)[C@H](Cc2ccccc2)NC(=O)C(C)(C)NC(=O)[C@@H](NC(=O)CCC(=O)NCCCOCCOCCOCCCNC(=O)CN2CCN(CC(=O)O)CCN(CC(=O)O)CCN(CC(=O)O)CC2)[C@@H](C)O)C(=O)N[C@@H](CCCCN)C(=O)N[C@@H](CCC(N)=O)C(=O)NC(C)(C)C(=O)N[C@@H](CC(N)=O)C(=O)N1)C(C)(C)C)C(N)=O [PSM-0521, DOTA-Ttds-Thr-Aib-Phe-[Cys-Lys-Gln-Aib-Asn-Cys]-Tle-Thr-NH2] ({X3-Suc}-T[Aib]FCKQ[Aib]NC[Tle]T-NH2; disulfide 4-9) |
| < 12.6 | < 200 | CC(=O)N[C@H](C(=O)NC(C)(C)C(=O)N[C@@H](Cc1ccccc1)C(=O)N[C@H]1CSSC[C@@H](C(=O)N[C@H](C(=O)N[C@H](C(=O)NCc2ccc(C(=O)N[C@H](CCCCNC(=O)CN3CCN(CC(=O)O)CCN(CC(=O)O)CCN(CC(=O)O)CC3)C(N)=O)cc2)[C@@H](C)O)C(C)(C)C)NC(=O)[C@H](CC(N)=O)NC(=O)C(C)(C)NC(=O)[C@H](CCCNC(=N)N)NC(=O)[C@H](CCCCN)NC1=O)[C@@H](C)O [PSM-0522, Ac-Thr-Aib-Phe-[Cys-Lys-Arg-Aib-Asn-Cys]-Tle-Thr-Pamb-lys(DOTA)-NH2] (Ac-T[Aib]FCKR[Aib]NC[Tle]T[4Amb][dK](DOTA)-NH2; disulfide 4-9) |
| < 12.6 | < 200 | C=C1N[C@@H](CCCCN)C(=O)N[C@@H](CCCNC(=N)N)C(=O)NC(C)(C)C(=O)N[C@@H](CC(N)=O)C(=O)N[C@H](C(=O)N[C@H](C(=O)N[C@H](C(=O)NCCOCCOCC(=O)N[C@H](CCCCNC(=O)CN2CCN(CC(=O)O)CCN(CC(=O)O)CCN(CC(=O)O)CC2)C(N)=O)[C@@H](C)O)C(C)(C)C)CSSC[C@@H]1NC(=O)[C@H](Cc1ccccc1)NC(=O)C(C)(C)NC(=O)[C@@H](NC(C)=O)[C@@H](C)O [PSM-0529, Ac-Thr-Aib-Phe-[Cys-Lys-Arg-Aib-Asn-Cys]-Tle-Thr-O2Oc-lys(DOTA)-NH2] |
| < 12.6 | < 200 | C[C@@H](O)[C@H](NC(=O)[C@@H](NC(=O)[C@@H]1CSSC[C@H](NC(=O)[C@H](Cc2ccccc2)NC(=O)C(C)(C)NC(=O)CCO)C(=O)N[C@@H](CCCCN)C(=O)N[C@@H](CCCNC(=N)N)C(=O)NC(C)(C)C(=O)N[C@@H](CC(N)=O)C(=O)N1)C(C)(C)C)C(N)=O [PSM-0530, HPA-Aib-Phe-[Cys-Lys-Arg-Aib-Asn-Cys]-Tle-Thr-NH2] ({Propanoyl(3-OH)}-[Aib]FCKR[Aib]NC[Tle]T-NH2; disulfide 3-8) |
